Assay results reported in US20070059720A9 (priority 2004, published 2007).

How the values were obtained:
cyclin D1 (CCND1) = experiment: Immunoblot of CCND1 in MCF-7 transfectants; format: cell-based, human; settings: MKP3 overexpressing cells; 2 hours
Description: Cells grown in 100 mm dishes were starved in phenol red-free (PRF), serum-free MEM (Specialty Media, Phillipsburg, N.J.) for 48 hours, and were then treated for 2 hours with vehicle (ethanol), estrogen (100 nM, 20), or OHT (100 nM). After treatment, cells were rinsed twice with ice-cold phosphate-buffered saline (PBS) and were then lysed immediately with 200 μl of cell lysis buffer (20 mM Tris HCl, pH 7.4, 150 mM NaCl, 1 mM B-glycerophosphate, 1 mM sodium orthovanadate, and 10% glycerol plus 1:100 proteinase inhibitor cocktail III) (Calbiochem, LaJolla, Calif.) per 100 mm tissue culture. The cell lysates were cleared by centrifugation at 16,100×g for 10 minutes at 4° C. Protein concentration was determined with the BCA Protein Assay kit (Pierce, Rockfold, Ill.) according to the manufacturer's directions. Equal amount of cell extracts were resolved under denaturing conditions by electrophoresis in 8-10% polyacrylamide gels containing sodium dodecyl sulfate (SDS-PAGE), and transferred to nitrocellulose membranes by electroblotting (Schleicher & Schuell, Keene, NH). […]
As expected with two hours of estrogen treatment, no induction of the two PR isoforms were detected in either the control vector (Con 1 and 2), or in the MKP3-transfected cells (FIG. 11A). […]

ERα [1] = experiment: Transient transactivation assay with ERE-luciferase reporter; format: cell-based; settings: U20S cells with exogenous ER or MCF-7 cells with endogenous ER; EBP50 expression
From the text: Transient transactivation assays with an ERE-luciferase reporter were utilized in U20S cells expressing exogenous ER (Panel A), or MCF-7 cells expressing endogenous ER (Panel B). ER activity was enhanced with EBP50 expression in the presence of estrogen.

ER-positive tumors = settings: cited from earlier work
PR-B = experiment: PR ubiquitin assay; format: cell-based, human; settings: 2 hrs in the presence of a proteasomal inhibitor
Description: Cells were staved in PRF MEM for 24 hours, and then 2×10^6 cells were seeded into 100 mm tissue culture plates, and incubated for another 24 hours. Cells were transiently transfected with Fugene 6 reagent (Roche, Indianapolis, Ind.) following the manufacturer's protocol. Each plate was transfected with 1 μg pcDNA 3.1-PR-B (subcloned by BamHI digestion from pSG5-human PR-B clone (Richer et al., 1998) obtained from Dr. Kathryn Horwitz, University of Colorado Health Sciences Center, 1 μg MKP3-V5, and 3 μg pcDNA-HAUbiquitin (kindly provided by Dr. Xinhua Feng, Baylor College of Medicine). Twenty-four hours later, cells were switched to serum free, PRF MEM, incubated for another 24 hours. In some experiments were pretreated with the 50 μM MG-132 (Calbiochem, LaJolla, Calif.) for 2 hours, and then treated with vehicle (ethanol), estradiol (E2, 100 nM), or 4-OH-Tam (100 nM) for an additional 2 hours. Cells were then harvested in 1 ml cell lysis buffer supplemented with 50 μM MG-132. Cell lysates from each treatment were precleared with the addition of 50 μl 50% protein A slurry (Amersham), and immunoprecipitated with the addition of anti-PR antibodies C-19 and H190 (2 μg each), and 20 μl 50% protein A slurry. […]

ERα [2] = experiment: Immunoblot of ERα in T47D vector and MTA2 clones; format: cell-based, human
ezrin = experiment: Immunoblot of ezrin in MCF-7 cells; format: cell-based, human; settings: 24 hours
Description: In Panel B, immunoprecipitation of E or T treated MCF-7 cells was performed followed by immunoblot analysis.

EBP50 = experiment: Immunoblot of EBP50 in T47D vector and MTA2 clones; format: cell-based, human
[3] = adjuvant therapy, patients with ER-positive tumors

| Compound | CCND1 levels (cyclin D1 (CCND1)) | effect on ER activity (ERE-luciferase) (ERα [1]) | 10-year recurrence risk (ER-positive tumors; [3]) | reduction of the risk of death from metastatic disease (ER-positive tumors; [3]) | share of patients with ER-positive disease who respond (ER-positive tumors; human, in vivo) | level of polyubiquitin-conjugated PR-B (PR-B) | ERα protein levels (ERα [2]) | ezrin levels (ezrin) | EBP50 levels (EBP50) |
| --- | --- | --- | --- | --- | --- | --- | --- | --- | --- |
| CC/C(=C(\c1ccccc1)c1ccc(OCCN(C)C)cc1)c1ccccc1 [Tam, tamoxifen] | High levels | antagonist and reversed estrogen's effects | halves | 26% | 60% | increased | – | – | – |
| C[C@]12CC[C@@H]3c4ccc(O)cc4CC[C@H]3[C@@H]1CC[C@@H]2O [E2, 17β-Estradiol] | – | – | – | – | – | – | decreased | similarly induced | increased |
